{"source": "patent US9328369B2", "about": "“Process for production of useful substance, and surfactant for use in the process” (priority 2009, dated 2016)"}
{"test_system": "Escherichia coli (α)", "assay": "Screening of secretion efficiency, alkaline phosphatase expressing strain", "format": "cell-based", "settings": "surfactant 1 wt %; 37° C., 1 hour; ELISA, anti-His-tag antibody", "from_the_text": "An alkaline phosphatase (phoA) gene of an Escherichia coli strain W3110 was amplified by the PCR method using primers 1 and 2 (Table 4). After being treated with restriction enzymes NdeI and BamHI, a PCR fragment was bound with an NdeI restriction enzyme site and with a BamHI restriction enzyme site of a pET-22b plasmid (product of Novagen). Then, the plasmid was transformed into an AG1 (DE3) Escherichia coli strain formed by transforming an Escherichia coli strain AG1 (product of TOYOBO Co., LTD.) with use of a λDE3 Lysogenization Kit (product of Novagen). In this manner, an alkaline phosphatase expressing strain (a) was formed.\nA pdxA gene of an Escherichia coli strain W3110 was amplified by the PCR method using primers 5 and 6 (Table 4). After being treated with restriction enzymes NdeI and BamHI, a PCR fragment was bound to an NdeI restriction enzyme site and a BamHI restriction enzyme site of a pET-22b plasmid (product of Novagen). Then, the plasmid was transformed into an AG1 (DE3) Escherichia coli strain to form a PdxA expressing strain (γ).\nIn this manner, culture solutions were prepared.\n(2) The strains were collected using a centrifuge (4,000 G, 4° C., 15 minutes). Each of the collected Escherichia coli strains was resuspended in 1 mL of a TB culture solution (product of Difco) and chloramphenicol (30 mg/L) and IPTG (100 μM) were added thereto. Shake culture at 37° C. for 3 hours induced expression of phoA, torA, and pdxA.\n(3) Subsequently, harvesting using a centrifuge was carried out again (4,000 G, 4° C., 15 minutes). Each of the collected Escherichia coli strains was resuspended in 2.5 mL of a Tris-NaCl buffer solution (50 mM Tris (pH 7.5), 100 mM NaCl). The resulting solution was divided into 25-μL portions at a time to be mixed with 25 μL of a Tris-NaCl buffer solution.\n(4) Then, the solution was allowed to stand at 37° C. for 1 hour. The supernatant solution was collected and diluted in a Tris-NaCl buffer solution to a proper concentration. Here, the quantification of the recombinant protein in the resulting solution was carried out by ELISA assay with use of an anti-His-tag antibody. The sample prior to the centrifugation in the process (3) was treated with ultrasonic waves (200 W, 10 minutes) and the quantification of the recombinant protein therein was similarly carried out by ELISA assay with use of an anti-His-tag antibody. The ratio of lysed bacteria was obtained with use of Escherichia coli (γ), and the secretion efficiencies of the recombinant proteins of Escherichia coli (α) and (β) were calculated by using the following formula. […] Secretion efficiency (%)=100×{(X/Y)−Z}.\nIn the formula, “X” represents the amount of the recombinant protein in the culture solution after removal of bacterial cells by centrifugation in the case of using Escherichia coli (α) or (β).\n“Y” represents the amount of the whole recombinant protein in the culture solution in the case of using Escherichia coli (α) or (β).\n“Z” represents the ratio of lysed bacteria obtained with use of Escherichia coli (γ), which is determined by the following formula: Z=Z1/Z2.\nIn the formula, “Z1” represents the amount of the recombinant protein in the culture solution which remains after removal of bacterial cells by centrifugation in the case of using Escherichia coli (γ).\n“Z2” represents the amount of the whole recombinant protein in the culture solution in the case of using Escherichia coli (γ).\nEscherichia coli (α) and (β) were each cultured in the same manner as in the above case except that polyoxyethylene (3 mol) tridecyl ether sodium acetate as the surfactant (A) was added right after the resuspension of the Escherichia coli in the buffer solution in the process (3) of A-0, in an amount of 1% by weight on the basis of the weight of the suspension of the bacterium. The secretion efficiency was calculated according to the above-mentioned definition.", "units": {"Secretion efficiency (%) Escherichia coli (α)": "%"}}
{"compound": "Polyethylene glycol diisostearate [A-22]", "Secretion efficiency (%) Escherichia coli (α)": 26.2}
{"compound": "2-alkyl-N-carboxymethyl-N-hydroxyethyl imidazolinium betaine [A-23]", "Secretion efficiency (%) Escherichia coli (α)": 20.2}
{"compound": "EO 3 mol adduct of higher alcohol (C11 to C 15) [A-10]", "Secretion efficiency (%) Escherichia coli (α)": 56.9}
{"compound": "Lanolin fatty acid aminopropyl ethylene dimethyl ammonium ethyl sulfate [A-28]", "Secretion efficiency (%) Escherichia coli (α)": 9.2}
{"compound": "1,2-dodecandiol monooxyethylene adduct [A-4]", "Secretion efficiency (%) Escherichia coli (α)": 90.7}
{"compound": "Behenylamide propyldimethylamine [A-47]", "Secretion efficiency (%) Escherichia coli (α)": 2.8}
{"compound": "CCCCCCCCCC[N+](C)(C)CCCCCCCCCC.[Cl-]", "note": "[A-48, Didecyl dimethyl ammonium chloride]", "Secretion efficiency (%) Escherichia coli (α)": 2.7}
{"compound": "Palm oil fatty acid sorbitan [A-54]", "Secretion efficiency (%) Escherichia coli (α)": 1.7}
{"compound": "CCCCCCCCCCCCCCCCCC[N+](C)(C)CCCCCCCCCCCCCCCCCC.[Cl-]", "note": "[A-50, Distearyl dimethyl ammonium chloride]", "Secretion efficiency (%) Escherichia coli (α)": 2.3}
{"compound": "Ester thiodipropionate of polyoxyethylene (3 mol) alkyl (C12, C15) ether [A-25]", "Secretion efficiency (%) Escherichia coli (α)": 11.8}
{"compound": "Triethanol amine alkyl (C12, C13) sulfate [A-18]", "Secretion efficiency (%) Escherichia coli (α)": 30.7}
{"compound": "Polyoxyethylene(EO 20 mol)sorbitan monostearate [A-72]", "Secretion efficiency (%) Escherichia coli (α)": 0.0}
{"compound": "C[C@H](CCC(=O)[O-])[C@H]1CC[C@H]2[C@@H]3[C@H](O)C[C@@H]4C[C@H](O)CC[C@]4(C)[C@H]3C[C@H](O)[C@]12C.[Na+]", "note": "[A-82, sodium cholate]", "Secretion efficiency (%) Escherichia coli (α)": 0.0}
{"compound": "PO 20 mol and EO 9 mol adduct of ethylhexanol [A-51]", "Secretion efficiency (%) Escherichia coli (α)": 2.3}
{"compound": "EO 24 mol adduct trilaurate of trimethylolpropane [A-64]", "Secretion efficiency (%) Escherichia coli (α)": 0.5}
{"compound": "Polyethylene glycol monoisostearate [A-29]", "Secretion efficiency (%) Escherichia coli (α)": 7.6}
{"compound": "Polyoxyethylene (Mw = 300) oleate diester [A-57]", "Secretion efficiency (%) Escherichia coli (α)": 1.5}
{"compound": "Oleic acid 4.5 mol ester of sorbitol EO 40 mol adduct [A-63]", "Secretion efficiency (%) Escherichia coli (α)": 0.7}
{"compound": "EO 6 mol adduct of decyl alcohol [A-12]", "Secretion efficiency (%) Escherichia coli (α)": 53.1}
{"compound": "Didecyl dimethyl ammonium adipate [A-42]", "Secretion efficiency (%) Escherichia coli (α)": 4.3}
{"compound": "Polyoxyethylene (Mw = 400) oleate monoester [A-58]", "Secretion efficiency (%) Escherichia coli (α)": 1.3}
{"compound": "Sorbitan trioleate [A-49]", "Secretion efficiency (%) Escherichia coli (α)": 2.4}
{"compound": "EO 10 mol adduct of oleyl alcohol [A-59]", "Secretion efficiency (%) Escherichia coli (α)": 1.1}
{"compound": "Isostearylalcohol polyoxyethylene (5 mol) sodium phosphate [A-31]", "Secretion efficiency (%) Escherichia coli (α)": 6.2}
{"compound": "Polyethylene glycol diisostearate [A-38]", "Secretion efficiency (%) Escherichia coli (α)": 5.1}
{"compound": "Polyoxyethylene (Mw = 200) oleate monoester [A-35]", "Secretion efficiency (%) Escherichia coli (α)": 5.3}
{"compound": "EO 10 mol adduct of cured castor oil [A-55]", "Secretion efficiency (%) Escherichia coli (α)": 1.7}
{"compound": "Polyoxyethylene (Mw = 190) stearic acid diester [A-33]", "Secretion efficiency (%) Escherichia coli (α)": 5.5}
{"compound": "CCCCCCCCCCCCOS(=O)(=O)[O-].[Na+]", "note": "[A-69, Sodium lauryl sulfate]", "Secretion efficiency (%) Escherichia coli (α)": 0.0}
{"compound": "Sorbitan monooleate [A-43]", "Secretion efficiency (%) Escherichia coli (α)": 3.5}
{"compound": "Polyoxyethylene (20 mol) sorbitan monolaurate [A-56]", "Secretion efficiency (%) Escherichia coli (α)": 1.6}
{"compound": "Sodium dodecyl diphenyl ether disulfonate [A-8]", "Secretion efficiency (%) Escherichia coli (α)": 79.1}
